In patent US20060122181A1, “Heteroaromatic pentacyclic compound and medicinal use thereof” (Japan Tobacco Inc., priority 2003, published 2006):

| melting point | SMILES |
| --- | --- |
| 127 to 132 °C | CCC(CC)c1ccc2c(c1)nc(-c1csc(COc3ccc(C(=O)O)cc3)n1)n2Cc1ccc(C(C)=O)cc1 [Example 3-130] |
| 168 to 170 °C | Cc1ccc(OCc2ccc(C(F)(F)F)cc2)c(-c2csc(CN(CC(=O)O)Cc3ccccc3)n2)c1 [Example 3-8] |
| 150 to 152 °C | CC(C)Cc1ccc(CN(C)c2ccc(-c3csc(CN(CC(=O)O)C(=O)Cc4ccc(Cl)cc4)n3)cc2)cc1 [Example 3-57] |
| 146 to 147 °C | CN(Cc1ccc(C2CCC(F)CC2)cc1)c1ccc(-c2csc(CN(CC(=O)O)Cc3ccccc3)n2)cc1 (stereo not drawn) [Example 3-33] |
| 190 to 191 °C | CN(Cc1ccc(C2CCCCC2)cc1)c1ccc(-c2csc(CN3CCN(CC(=O)O)CC3)n2)cc1 [Example 3-111] |
| 99 to 101 °C | CCCC(CCC)c1ccc(COc2ccc(-c3csc(CN(CC(=O)O)C(=O)c4ccc(OC)cc4)n3)cc2)cc1 [Example 3-24] |
| 152 to 155 °C | CN(CC(=O)O)Cc1nc(-c2ccc(N(C)Cc3ccc(C4CCCCC4)cc3)cc2)cs1 [Example 3-80] |
| 122 °C | CC(C)CCSc1ccc(CN(C)c2ccc(-c3csc(CN(CC(=O)O)Cc4ccccc4)n3)cc2)cc1 [Example 3-42] |
| 120.7 to 123.3 °C | CCCCOc1ccc(S(=O)(=O)N(CC)c2ccc(-c3csc(CN(CC(=O)O)Cc4ccccc4)c3)cc2)cc1 [Example 4-103] |
| 104 to 110 °C | CC(C)CN(Cc1nc(-c2ccc(N(C)Cc3ccc(C4CCCCC4)cc3)cc2)cs1)S(=O)(=O)CC(=O)O [Example 3-104] |
| 114 to 117 °C | CCCC(CCC)c1ccc(CN(C)c2ccc(-c3csc(CN(CC(=O)O)C(=O)c4ccc(C)cc4)n3)cc2)cc1 [Example 3-62] |
| 166 °C | CCCC(CCC)c1ccc(OCc2ccc(-c3csc(CN(CC(=O)O)Cc4nc(C(C)(C)C)cs4)c3)cc2)cc1 [Example 4-15] |
| 148 to 150 °C | CCCC(CCC)c1ccc(COc2ccc(-c3csc(COc4cncc(C(=O)O)c4)n3)c(C)c2)cc1 [Example 3-114] |
| 114 to 119 °C | CCC(CC)c1ccc(COc2ccc(-c3csc(CN(CC(=O)O)Cc4cc(C)cc(C)c4)n3)cc2)cc1 [Example 3-18] |
| 141 to 144 °C | CCCC(CCC)c1ccc(COc2ccc(-c3csc(CN(CC(=O)O)C(=O)c4ccccc4)n3)cc2)cc1 [Example 3-22] |
| 155 to 157 °C | CC(C)Cc1ccc(COc2ccc(C(C)(C)C)cc2-c2csc(CN(CC(=O)O)Cc3ccccc3)n2)cc1 [Example 3-12] |
| 149 to 151 °C | CC(C)Cc1ccc(CN(C)c2ccc(-c3csc(CN(CC(=O)O)Cc4ccccc4)n3)cc2)cc1 [Example 3-39] |
| 167 to 170 °C | CN(Cc1ccc(-c2ccccc2)cc1)c1ccc(-c2csc(CN(CC(=O)O)Cc3ccccc3)n2)cc1 [Example 3-37] |
| 192 to 195 °C | CN(C[C@H]1CC[C@H](c2ccc(C(C)(C)C)cc2)CC1)c1ccc(-c2csc(CN(CC(=O)O)Cc3ccccc3)n2)cc1 [Example 3-28] |
| 161 to 166 °C | CC(C)(C)Cc1nc2ccccc2n1Cc1ccc(-c2csc(CN(CC(=O)O)Cc3ccccc3)c2)cc1 [Example 4-85] |
| 77 to 82 °C | CC(C)c1ccc(CN(CC(=O)O)Cc2nc(-c3ccc(N(Cc4ccc(C(C)C)cc4)C(C)C)cc3)cs2)cc1 [Example 3-45] |
| 142 to 144 °C | CCC(CC)c1ccc(COc2ccc(-c3csc(CN(CC(=O)O)C(=O)c4ccc(C)cc4)n3)cc2)cc1 [Example 3-23] |

The next lines start with the compound.

| SMILES | melting point |
| --- | --- |
| CCC(CC)c1ccc(N(Cc2ccc(-c3csc(COc4cc(C(=O)O)ccc4[N+](=O)[O-])n3)cc2)C(C)C)cc1 [Example 1-93] | 198 to 200 °C |
| CCCC(CCC)c1ccc(Cn2c(-c3csc(CN4CCN(c5cccc(C(=O)O)c5)CC4)n3)nc3ccccc32)cc1 [Example 1-170] | 179.8 to 181.2 °C |
| CCCC(CCC)c1ccc(N(C)Cc2ccc(-c3csc(COc4cncc(C(=O)O)c4)n3)cc2)cc1 [Example 1-4] | 135 to 138 °C |
| CN(Cc1ccc(-c2csc(N(C)Cc3ccc(C(=O)O)cc3)n2)cc1)c1ccc(C2CCCCC2)cc1 [Example 1-18] | 190 to 192 °C |
| CCCC(CCC)c1ccc(OCc2ccc(-c3csc(Cn4nc(C(C)(C)C)cc4C(=O)O)n3)cc2)cc1 [Example 1-179] | 123 to 125 °C |
| CCCC(CCC)c1ccc(Cn2c(-c3csc(CN4CCc5ccc(C(=O)O)cc5C4)n3)nc3ccccc32)cc1 [Example 1-169] | 189.2 to 190.3 °C |
| O=C(O)c1cccc(C2CCN(Cc3nc(-c4ccc(OCc5cc(C(F)(F)F)cc(C(F)(F)F)c5)cc4)cs3)CC2)c1 [Example 1-174] | 222 to 228 °C |
| CCCC(CCC)c1ccc(OCc2ccc(-c3csc(CN(CC(=O)O)C(=O)COc4ccc(C(C)C)cc4)n3)cc2)cc1 [Example 1-135] | 192 to 194 °C |
| CCC(CC)CN(Cc1ccc(-c2csc(COc3cncc(C(=O)O)c3)n2)cc1)c1ccc(C(C)C)cc1 [Example 1-74] | 181 °C |
| CC(C)CN(Cc1ccc(-c2csc(CN(CC(=O)O)Cc3ccccc3)n2)cc1)c1ccc(C(C)(C)C)cc1 [Example 1-23] | 133 °C |
| CCCC(CCC)c1ccc(OCc2ccc(-c3csc(Cn4nc(C(=O)O)cc4C)n3)cc2)cc1 [Example 1-177] | 185 to 194 °C |
| CC(C)CN(Cc1ccc(-c2csc(COc3cncc(C(=O)O)c3)n2)cc1)c1ccc(C(C)C)cc1 [Example 1-8] | 196 to 197 °C |
| CCCC(CCC)c1ccc(Cn2cc(-c3csc(CN4C[C@H](O)C[C@H]4C(=O)O)n3)c3ccccc32)cc1 [Example 1-180] | 105 to 107 °C |
| CCCC(CCC)c1ccc(N(Cc2ccc(-c3csc(CN(CC(=O)O)C(=O)COCc4ccccc4)n3)cc2)C(C)C)cc1 [Example 1-134] | 158 to 160 °C |
| CN(c1ccc(C(=O)O)cc1)c1nc(-c2ccc(C(=O)Nc3ccc(C4CCCCC4)cc3)cc2)cs1 [Example 1-52] | 250 °C (dec.) |
| CCCC(CCC)c1ccc(Cn2c(-c3ccccc3)c(-c3csc(CN4CCC(C(=O)O)CC4)n3)c3ccccc32)cc1 [Example 1-183] | 101 to 103 °C |
| Cc1ccc(COc2ccc(-c3csc(CN4CCC(c5cccc(C(=O)O)c5)CC4)n3)cc2)cc1[N+](=O)[O-] [Example 1-184] | 205 to 210 °C |
| CCC(CC)c1ccc(N(Cc2ccc(-c3csc(COc4ccc(C(=O)O)cc4)n3)cc2)C(C)C)cc1 [Example 1-2] | 219 °C |
| CCC(CC)c1ccc(N(Cc2ccc(-c3csc(CNc4cccc(C(=O)O)c4)n3)cc2)C(C)C)cc1 [Example 1-92] | 159 to 160 °C |
| CCC(CC)c1ccc(N(Cc2ccc(-c3csc(CN4CCN(c5ccc(C(=O)O)cc5)CC4)n3)cc2)C(C)C)cc1 [Example 1-154] | 232 to 234 °C |
| CCCC(CCC)c1ccc(Cn2cc(-c3csc(CN4CCC(C(=O)O)CC4)n3)c3ccccc32)cc1 [Example 1-165] | 111 to 115 °C |
| CCC(CC)c1ccc(N(Cc2ccc(-c3csc(CSc4ccc(C(=O)O)cc4)n3)cc2)C(C)C)cc1 [Example 1-13] | 132.5 °C |
| CCCC(CCC)c1ccc(N(Cc2ccc(-c3csc(CN(CC(=O)O)S(=O)(=O)N(C)c4ccccc4)n3)cc2)C(C)C)cc1 [Example 1-116] | 146 to 148 °C |
